Key:
[1] = tested on: experimental periodontitis; experiment: BIO hydrogels in rat experimental periodontitis, micro-CT of periodontal bone and femur; assay type: in vivo, Sprague Dawley rats; conditions: 100 μM BIO, week 4
Excerpt: Ten-month-old female Sprague Dawley rats (retired breeders, Envigo) were acclimated for one week prior to experiment. […] Using silk ligatures, the experimental periodontitis was induced as described previously^[32, 38]. Briefly, rats were first anesthetized in an isoflurane chamber with a 1% to 4% isoflurane in 100% O2. After taking the body weight, the rats were positioned with a nose cone supplied with 0.5% to 2% isoflurane and 100% O2 to maintain anesthesia during the entire procedure. To induce experimental periodontitis, a 4-0 silk ligature was gently tightened subgingivally around the maxillary 2nd molars (M2). Following ligature placement, different treatments (10 μL) were locally delivered between the maxillary 1st molar (M1) and 2nd molar (M2) once each week for 3 weeks. After one week, the ligatures were removed. All animals were euthanized at week 4. The entire palate including all three molars was dissected and fixed in 10% formalin prior to micro-CT and histological analyses. […] All palate samples (including all three molars) were evaluated for alveolar bone quality using a high-resolution X-ray microtomography system (Skyscan 1172, Bruker, Kontich, Belgium), references to previous studies^[32, 38]. […] To evaluate bone erosion, the distance from cementoenamel junction (CEJ) to alveolar bone crest (ABC) was determined using Skyscan Data viewer software. […] The ROI was determined from the distopalatal of M1 to the mesiopalatal of M2 (length), 130 slices below the CEJ of M1 and M2 (height), and from the palatal side to the buccal side of M1 and M2 (width). […] For bone quality analysis, a consistent polygonal ROI of trabecular bone at the distal femur was selected and the ROI was determined from 20 slices to 100 slices proximal to the growth plate. The bone histomorphometric parameters, including mean bone volume (BV), bone volume/tissue volume (BV/TV), trabecular thickness (Tb.Th) and bone mineral density (BMD) were determined using CT-Analyzer software.

β-catenin = experiment: BIO hydrogels in rat experimental periodontitis, IHC staining of β-catenin; assay type: in vivo, Sprague Dawley rats; conditions: between M1 and M2
Excerpt: (§1) Ten-month-old female Sprague Dawley rats (retired breeders, Envigo) were acclimated for one week prior to experiment. […] Using silk ligatures, the experimental periodontitis was induced as described previously^[32, 38]. Briefly, rats were first anesthetized in an isoflurane chamber with a 1% to 4% isoflurane in 100% O2. After taking the body weight, the rats were positioned with a nose cone supplied with 0.5% to 2% isoflurane and 100% O2 to maintain anesthesia during the entire procedure. To induce experimental periodontitis, a 4-0 silk ligature was gently tightened subgingivally around the maxillary 2nd molars (M2). […] To probe the presence of inflammatory cells between M1 and M2 and osteoclasts in the alveolar crest, a pathologist (SML) blind to experimental group assignment, evaluated the slides semi-quantitatively using an Olympus BX53 microscope. A semi-quantitative scoring system^[32, 40, 41] was used to evaluate inflammatory cells, where 0 is negative, 1 is less than 30% of the affected tissues, 2 is some inflammatory cells (30-60%), and 3 is many inflammatory cells (>60%). Similarly, osteoclasts on the alveolar crest were evaluated using a semi-quantitative scoring system^[32,42] where 0 is negative, 1 is a few osteoclasts lining less than 5% of alveolar bone surface, 2 is some osteoclasts (5-25%), and 3 is many osteoclasts (25-50%). […]

[2] = tested on: experimental periodontitis; experiment: BIO hydrogels in rat experimental periodontitis, H&E histology scores; assay type: in vivo, Sprague Dawley rats
Excerpt: as §1

[3] = In vitro release of BIO from PF127 hydrogel (membrane-less); assay type: physicochemical; conditions: 37° C.
Procedure: After gelation, 2 mL of phosphate-buffered saline (PBS; pH 7.4) containing 0.5% Tween 80 pre-equilibrated at 37° C. were gently laid over the surface of the hydrogels and incubated in a water bath at 37° C. with continuous gentle shaking. […] The release study was performed in triplicate.

[4] = 10 μL local once each week for 3 weeks

With `O=C1Nc2cc(Br)ccc2/C1=C1/Nc2ccccc2/C1=N\O` [BIO, 6-bromoindirubin-3′-oxime] the “linear distance CEJ to ABC (alveolar bone loss)” value ([1]; 10 μL local between M1 and M2 once each week for 3 weeks) was “did not show a statistically significant difference comparing to the saline-treated group”, the “Bone volume (BV) of alveolar bone” value [1, 4] was “No statistically significant difference” and the “trabecular thickness (Tb.Th) of alveolar bone” value [1, 4] was “No statistically significant difference”. For the same compound, the “β-Catenin positive cell score (0-3)” value (β-catenin) was “not significantly different (P>0.05) from the saline Con-, PF127, and healthy Con+ group”, the “osteoclast score (semi-quantitative, 0-3)” value ([2]; alveolar crest, after three weeks of treatment) was “significantly lower than the saline Con-group” and the “inflammatory cell score (semi-quantitative, 0-3)” value ([2]; between M1 and M2, after three weeks of treatment) was “statistically significant difference (P<0.01) only when compared to the saline Con-group”. The “burst release of BIO” value ([3]; from 20% w/v PF127 hydrogel, first 3 hr) was about 50%, the “total release of BIO” value ([3]; from 20% w/v PF127 hydrogel, in 24 hr) was about 99% and the BIO release profile ([3]; from 25% w/v PF127 hydrogel) was “burst release in the first 12 hr followed by a sustained release in the next 48 hr”. The “duration of sustained BIO release” value ([3]; from 30% w/v PF127 hydrogel) was “over 48 hr”.

Reference: US12419811B2, “Hydrogel drug delivery composition” (Board of Regents of the University of Nebraska, priority 2019, dated 2025)
